Results on eleven compounds are retold here after ChEMBL document CHEMBL1201862, “PubChem BioAssay data set” (2004).

Molecules are shown by their SMILES.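 Where inhibition never reached the appropriate level, the endpoint shown equals the highest concentration tested. Otherwise, values were interpolated linearly from a five-concentration, 48-hour dose response in 96-well plates. GI50 marks 50% less growth.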 Activity calls are given as the source filed them. Rule as the data show it: active = GI50 up to about 1.1 µM and inactive = higher.

Among the test systems are HOP-62; SW-620; U-251; SN12C; OVCAR-8; M14; ACHN; HCT-15; A549; HOP-92; Malme-3M; K562; HT-29; MDA-N; HCC 2998; KM12; CCRF-CEM; Hs-578T; SF-268; HL-60.
Assay in all cases: inhibition of tumour cell growth, NCI panel, 48 h

For the compound `CCC(=O)OCc1ccc2oc(=O)c(C(=O)Oc3cncc(Cl)c3)cc2c1`, the GI50 was > 100 µM (inactive) in the assay with HOP-62; > 100 µM (inactive) in the assay with SW-620; > 100 µM (inactive) with U-251; 42.7 µM (inactive) in the assay with SN12C; > 100 µM (inactive) with OVCAR-8; > 100 µM (inactive) with M14. Also, the GI50 with ACHN is > 100 µM (inactive); in the assay on HCT-15, 44 µM; in the assay on A549, > 100 µM (inactive); in the assay with HOP-92, 63.2 µM (inactive); in the assay on Malme-3M, 66.7 µM (inactive); in the assay on K562, 20.6 µM (inactive). Besides, the GI50 in the assay with HT-29 was 76 µM (inactive); in the assay with MDA-N it was > 100 µM (inactive); in the assay with HCC 2998 it was 35.6 µM (inactive); with KM12 it was > 100 µM (inactive); in the assay with CCRF-CEM, < 0.01 µM (active); in the assay with Hs-578T it was > 100 µM (inactive). Moreover, the GI50 in the assay on SF-268 is > 100 µM (inactive).
With `Cc1sc2nc(-c3ccc(Cl)c([N+](=O)[O-])c3)c(/C=N/NC(=N)N)n2c1C`, the GI50 is 0.471 µM (active) with HOP-62; 0.247 µM (active) in the assay with SW-620; 0.341 µM (active) in the assay on U-251; 1.31 µM (inactive) with SN12C; 0.824 µM (active) in the assay on OVCAR-8; 1.53 µM (inactive) in the assay with M14. Besides, the GI50 with ACHN is 1.46 µM (inactive); in the assay with HCT-15 it was 1.37 µM; in the assay on A549, 1.62 µM (inactive); in the assay on HOP-92 it was 1.4 µM (inactive); with Malme-3M, 2 µM (inactive); in the assay with K562, 2.39 µM (inactive). In addition, the GI50 with HT-29 is 1.35 µM (inactive); in the assay with MDA-N, 0.893 µM (active); in the assay on HCC 2998, 1.1 µM (active); with HL-60 it was 1.71 µM (inactive); in the assay on KM12, 0.45 µM (active); with Hs-578T, 1.79 µM (inactive). For the same compound, in the assay with SF-268, the GI50 is 1.85 µM (inactive).
Take `COc1ccc(/N=C2\C(=N/c3ccc(OC)cc3)N(S(=O)(=O)c3ccccc3)C(=S)N2c2ccc(OC)cc2)cc1`: the GI50 was > 100 µM (inactive) in the assay on HOP-62; > 100 µM (inactive) in the assay with SW-620; > 100 µM (inactive) in the assay with U-251; > 100 µM (inactive) in the assay with SN12C; > 100 µM (inactive) with OVCAR-8; 25.1 µM (inactive) in the assay with M14. Also, the GI50 is > 100 µM (inactive) in the assay on ACHN; over 100 µM with HCT-15; > 100 µM (inactive) in the assay with A549; > 100 µM (inactive) in the assay on HOP-92; > 100 µM (inactive) in the assay with K562; > 100 µM (inactive) in the assay with MDA-N. Further, the GI50 with HCC 2998 is > 100 µM (inactive); with KM12, > 100 µM (inactive); with Hs-578T it was 89.1 µM (inactive); in the assay on SF-268, > 100 µM (inactive).
Regarding `COC(=O)/C=C1/N=C(N(C)/N=C/c2ccccc2)NC1=O`, the GI50 with HOP-62 was > 100 µM (inactive); with SW-620, > 100 µM (inactive); with SN12C, > 100 µM (inactive); in the assay with OVCAR-8, > 100 µM (inactive); in the assay on M14, > 100 µM (inactive); in the assay with HCT-15, over 100 µM. Besides, the GI50 in the assay on A549, in the assay with Malme-3M, in the assay with K562, in the assay with HT-29, in the assay with MDA-N and with HCC 2998 was > 100 µM (inactive) throughout. For the same compound, the GI50 in the assay on HL-60, in the assay with KM12, with CCRF-CEM, in the assay with Hs-578T and in the assay with SF-268 was > 100 µM (inactive) each time.
Regarding `COc1ccc(C(=O)C(CC2C(=O)CC(C)(C)C(C(=O)C(=O)Nc3c(C)cccc3C)C2=O)c2ccc(OC)cc2)cc1` (stereo not given), the GI50 in the assay with HOP-62, in the assay on SW-620, in the assay with U-251, with SN12C, in the assay on OVCAR-8 and in the assay on M14 was > 100 µM (inactive) each time. The GI50 is > 100 µM (inactive) with ACHN; over 100 µM in the assay on HCT-15; > 100 µM (inactive) with A549; > 100 µM (inactive) with HOP-92; > 100 µM (inactive) in the assay with HT-29; > 100 µM (inactive) in the assay with MDA-N. For the same compound, the GI50 is > 100 µM (inactive) in the assay on HCC 2998; 96.6 µM (inactive) in the assay on HL-60; > 100 µM (inactive) in the assay with KM12; > 100 µM (inactive) with CCRF-CEM; > 100 µM (inactive) in the assay on Hs-578T; > 100 µM (inactive) with SF-268.
As to `C=CCC(CNC(=O)OCc1ccccc1)OC(=O)OCc1ccccc1` (stereo not given), the GI50 is > 100 µM (inactive) in the assay on HOP-62; > 100 µM (inactive) with SW-620; > 100 µM (inactive) with U-251; > 100 µM (inactive) in the assay with SN12C; 69 µM (inactive) in the assay on OVCAR-8; > 100 µM (inactive) in the assay with M14. For the same compound, the GI50 in the assay with ACHN was > 100 µM (inactive); in the assay on HCT-15, 74.3 µM; in the assay on A549, 51.3 µM (inactive); in the assay on HOP-92, 52.6 µM (inactive); in the assay with K562, 37.3 µM (inactive); in the assay on HT-29 it was 36.3 µM (inactive). Further, the GI50 in the assay with MDA-N was 47.1 µM (inactive); with HCC 2998, > 100 µM (inactive); in the assay on HL-60, 34 µM (inactive); in the assay on KM12, 48.1 µM (inactive); with CCRF-CEM it was 47.4 µM (inactive); with Hs-578T, > 100 µM (inactive). In the assay on SF-268, the GI50 was > 100 µM (inactive).
Regarding `O=c1c2ccccc2nc(-c2cccc([N+](=O)[O-])c2)n1O`, the GI50 was 49 µM (inactive) in the assay with HOP-62; 35.3 µM (inactive) with SW-620; 27.4 µM (inactive) with U-251; 24.2 µM (inactive) in the assay with SN12C; 20.3 µM (inactive) in the assay with OVCAR-8; 50.8 µM (inactive) in the assay with M14. For the same compound, the GI50 is 38.5 µM (inactive) in the assay with ACHN; 17.8 µM in the assay with HCT-15; 34.9 µM (inactive) with A549; 3.94 µM (inactive) in the assay on HOP-92; > 80 µM (inactive) in the assay with Malme-3M; 4.22 µM (inactive) in the assay on K562. In addition, the GI50 in the assay with HT-29 is 43.7 µM (inactive); in the assay with MDA-N, 43.4 µM (inactive); in the assay on HCC 2998, 59.6 µM (inactive); in the assay with HL-60, 1.64 µM (inactive); with KM12, 36.5 µM (inactive); in the assay on Hs-578T it was > 100 µM (inactive). In addition, the GI50 in the assay with SF-268 is 34.4 µM (inactive).
`CC(C)N1[C@@H]2CCCC[C@H]2N(C(C)C)[PH]1=O`: the GI50 in the assay on HOP-62, in the assay with SW-620, with SN12C, in the assay with OVCAR-8, with M14 and with ACHN was > 100 µM (inactive) in each case. For the same compound, the GI50 in the assay on HCT-15 was over 100 µM; with A549, > 100 µM (inactive); in the assay with HOP-92, > 100 µM (inactive); with K562 it was > 100 µM (inactive); in the assay with HT-29, > 100 µM (inactive); in the assay with MDA-N, > 100 µM (inactive). The GI50 in the assay with HCC 2998, in the assay with KM12, with CCRF-CEM, with Hs-578T and with SF-268 was > 100 µM (inactive) throughout.
On to `Nc1ccc2nc(-c3ccccn3)c(-c3ccccn3)nc2c1`, for which the GI50 in the assay with SW-620, in the assay on U-251, with SN12C, with OVCAR-8, in the assay on M14 and in the assay with ACHN was > 100 µM (inactive) throughout. In addition, the GI50 in the assay with HCT-15 was over 100 µM; with A549, > 100 µM (inactive); in the assay on HOP-92, > 100 µM (inactive); with Malme-3M, > 100 µM (inactive); in the assay with K562 it was > 100 µM (inactive); with MDA-N, > 100 µM (inactive). For the same compound, the GI50 in the assay on HCC 2998, with HL-60, with KM12, with CCRF-CEM, in the assay with Hs-578T and in the assay on SF-268 was > 100 µM (inactive) in each case.
As to `O=C(O)c1cc(-c2ccncc2)nc2ccccc12`, the GI50 in the assay with HOP-62, with SW-620, with U-251, in the assay with SN12C, in the assay on OVCAR-8 and with M14 was > 100 µM (inactive) in each case. The GI50 was > 100 µM (inactive) with ACHN; over 100 µM with HCT-15; > 100 µM (inactive) in the assay on A549; > 100 µM (inactive) in the assay with HOP-92; > 100 µM (inactive) in the assay on Malme-3M; > 100 µM (inactive) with K562. Further, the GI50 with HT-29, in the assay with MDA-N, with HCC 2998, in the assay on HL-60, in the assay on KM12 and in the assay on Hs-578T was > 100 µM (inactive) each time. In addition, the GI50 with SF-268 was > 100 µM (inactive).
In the case of `NS(=O)(=O)c1ccc(/N=N/c2ccc(O)c(C(=O)O)c2)cc1` [SALAZOSULFAMIDE], the GI50 in the assay with HOP-62, with SW-620, with U-251, with SN12C, with OVCAR-8 and in the assay with M14 was > 100 µM (inactive) throughout. In addition, the GI50 in the assay with ACHN is > 100 µM (inactive); with HCT-15 it was over 100 µM; with A549 it was > 100 µM (inactive); in the assay with HOP-92, > 100 µM (inactive); in the assay on Malme-3M it was 52.2 µM (inactive); in the assay with K562 it was > 100 µM (inactive). The GI50 in the assay with HT-29 was > 100 µM (inactive); in the assay with MDA-N it was > 100 µM (inactive); in the assay on HCC 2998, > 100 µM (inactive); with HL-60 it was 29.1 µM (inactive); in the assay with KM12, > 100 µM (inactive); in the assay on Hs-578T it was 23.6 µM (inactive). Besides, the GI50 in the assay on SF-268 was > 100 µM (inactive).
